Source: US11091478B2 (Fochon Pharmaceuticals, Ltd., priority 2017, dated 2021)

Columns and labels:
[1] = tested on: DOHH2 cells; experiment: Cell proliferation assay (MTS), DOHH2 cells, 120 h; assay type: cell-based; settings: Homo sapiens, DOHH-2, 120 h
How it was run: (§1)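 Cells in RPMI-1640 with 10% FBS were seeded at 5000/well, left overnight at 37° C., 5% CO2, then exposed to compound at 10000 down to 1.5 nM (nine concentrations) for 72 h (RS4;11) or 120 h (DOHH2). Viability was read by MTS, 2 h, absorbance at 490/650 nm; IC50 calculated.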

[2] = tested on: RS4;11 cells; experiment: Cell proliferation assay (MTS), RS4;11 cells, 72 h; assay type: cell-based; settings: Homo sapiens, RS4-11, 72 h
How it was run: as §1

Compound	IC50 [2] [µM]	IC50 [1] [µM]
CC1(C)CCC(CN2CCN(c3ccc(C(=O)NS(=O)(=O)c4cc5c(c([N+](=O)[O-])c4)N[C@@H](CCN4CCC(C)(O)CC4)CO5)c(Oc4cnc5[nH]ccc5c4)c3)CC2)=C(c2ccc(Cl)cc2)C1 [Example 2-11, (S)-2-((1H-pyrrolo[2,3-b]pyridin-5-yl)oxy)-4-(4-((4′-chloro-5,5-dimethyl-3,4,5,6-tetra-hydro-[1,1′-biphenyl]-2-yl)methyl)piperazin-1-yl)-N-((3-(2-(4-hydroxy-4-methylpiper-idin-1-yl)ethyl)-5-nitro-3,4-dihydro-2H-benzo[b][1,4]oxazin-7-yl)sulfonyl)benzamide]	0.012	0.053
CC1(C)CCC(CN2CCN(c3ccc(C(=O)NS(=O)(=O)c4cc5c(c([N+](=O)[O-])c4)N[C@@H](CCO)CO5)c(Oc4cnc5[nH]ccc5c4)c3)CC2)=C(c2ccc(Cl)cc2)C1 [Example 2-13, (S)-2-((1H-pyrrolo[2,3-b]pyridin-5-yl)oxy)-4-(4-((4′-chloro-5,5-dimethyl-3,4,5,6-tetra-hydro-[1,1′-biphenyl]-2-yl)methyl)piperazin-1-yl)-N-((3-(2-hydroxyethyl)-5-nitro-3,4-dihydro-2H-benzo[b][1,4]oxazin-7-yl)sulfonyl)benzamide]	0.009	0.033
CC1(C)CCC(CN2CCN(c3ccc(C(=O)NS(=O)(=O)c4cc5c(c([N+](=O)[O-])c4)N[C@H](CCN4CCC(C)(O)CC4)CO5)c(Oc4cnc5[nH]ccc5c4)c3)CC2)=C(c2ccc(Cl)cc2)C1 [Example 2-15, (R)-2-((1H-pyrrolo[2,3-b]pyridin-5-yl)oxy)-4-(4-((4′-chloro-5,5-dimethyl-3,4,5,6-tetra-hydro-[1,1′-biphenyl]-2-yl)methyl)piperazin-1-yl)-N-((3-(2-(4-hydroxy-4-methylpiper-idin-1-yl)ethyl)-5-nitro-3,4-dihydro-2H-benzo[b][1,4]oxazin-7-yl)sulfonyl)benzamide]	0.02	0.05
CC1(C)CCC(CN2CCN(c3ccc(C(=O)NS(=O)(=O)c4cc5c(c([N+](=O)[O-])c4)N[C@H](CCO)CO5)c(Oc4cnc5[nH]ccc5c4)c3)CC2)=C(c2ccc(Cl)cc2)C1 [Example 2-17, (R)-2-((1H-pyrrolo[2,3-b]pyridin-5-yl)oxy)-4-(4-((4′-chloro-5,5-dimethyl-3,4,5,6-tetra-hydro-[1,1′-biphenyl]-2-yl)methyl)piperazin-1-yl)-N-((3-(2-hydroxyethyl)-5-nitro-3,4-dihydro-2H-benzo[b][1,4]oxazin-7-yl)sulfo-nyl)benzamide]	0.008	0.02
CC1(C)CCC(CN2CCN(c3ccc(C(=O)NS(=O)(=O)c4cc5c(c([N+](=O)[O-])c4)N[C@@H](CN4CCOCC4)CO5)c(Oc4cnc5[nH]ccc5c4)c3)CC2)=C(c2ccc(Cl)cc2)C1 [Example 2-18, (S)-2-((1H-pyrrolo[2,3-b]pyridin-5-yl)oxy)-4-(4-((4′-chloro-5,5-dimethyl-3,4,5,6-tetra-hydro-[1,1′-biphenyl]-2-yl)methyl)piperazin-1-yl)-N-((3-(morpholinomethyl)-5-nitro-3,4-dihydro-2H-benzo[b][1,4]oxazin-7-yl)sulfonyl)benzamide]	0.004	0.009
CC1(C)CCC(CN2CCN(c3ccc(C(=O)NS(=O)(=O)c4cc5c(c([N+](=O)[O-])c4)N[C@@H](CN4CCC(C)(O)CC4)CO5)c(Oc4cnc5[nH]ccc5c4)c3)CC2)=C(c2ccc(Cl)cc2)C1 [Example 2-19, (S)-2-((1H-pyrrolo[2,3-b]pyridin-5-yl)oxy)-4-(4-((4′-chloro-5,5-dimethyl-3,4,5,6-tetra-hydro-[1,1′-biphenyl]-2-yl)methyl)piperazin-1-yl)-N-((3-((4-hydroxy-4-methylpiperidin-1-yl)methyl)-5-nitro-3,4-dihydro-2H-ben-zo[b][1,4]oxazin-7-yl)sulfonyl)benzamide]	0.036	0.07
CN(C)C[C@H]1COc2cc(S(=O)(=O)NC(=O)c3ccc(N4CCN(CC5=C(c6ccc(Cl)cc6)CC(C)(C)CC5)CC4)cc3Oc3cnc4[nH]ccc4c3)cc([N+](=O)[O-])c2N1 [Example 2-20, (S)-2-((1H-pyrrolo[2,3-b]pyridin-5-yl)oxy)-4-(4-((4′-chloro-5,5-dimethyl-3,4,5,6-tetra-hydro-[1,1′-biphenyl]-2-yl)methyl)piperazin-1-yl)-N-((3-((dimethylamino)methyl)-5-nitro-3,4-dihydro-2H-benzo[b][1,4]oxazin-7-yl)sulfonyl)benzamide]	0.029	0.059
C[C@@H]1CN(C[C@@H]2COc3cc(S(=O)(=O)NC(=O)c4ccc(N5CCN(CC6=C(c7ccc(Cl)cc7)CC(C)(C)CC6)CC5)cc4Oc4cnc5[nH]ccc5c4)cc([N+](=O)[O-])c3N2)CCO1 [Example 2-23, 2-((1H-pyrrolo[2,3-b]pyridin-5-yl)oxy)-4-(4-((4′-chloro-5,5-dimethyl-3,4,5,6-tetra-hydro-[1,1′-biphenyl]-2-yl)methyl)piperazin-1-yl)-N-(((R)-3-(((R)-2-methylmorpholino)methyl)-5-nitro-3,4-dihydro-2H-benzo[b][1,4]oxazin-7-yl)sulfonyl)benzamide]	0.007	0.033
CC1(C)CCC(CN2CCN(c3ccc(C(=O)NS(=O)(=O)c4cc5c(c([N+](=O)[O-])c4)N[C@@H](CN4CC(O)C4)CO5)c(Oc4cnc5[nH]ccc5c4)c3)CC2)=C(c2ccc(Cl)cc2)C1 [Example 2-24, (S)-2-((1H-pyrrolo[2,3-b]pyridin-5-yl)oxy)-4-(4-((4′-chloro-5,5-dimethyl-3,4,5,6-tetra-hydro-[1,1′-biphenyl]-2-yl)methyl)piperazin-1-yl)-N-((3-((3-hydroxyazetidin-1-yl)meth-yl)-5-nitro-3,4-dihydro-2H-benzo[b][1,4]oxazin-7-yl)sulfonyl)benzamide]	0.072	0.115
CC1(C)CCC(CN2CCN(c3ccc(C(=O)NS(=O)(=O)c4cc5c(c([N+](=O)[O-])c4)N[C@@H](CN4CC(C)(O)C4)CO5)c(Oc4cnc5[nH]ccc5c4)c3)CC2)=C(c2ccc(Cl)cc2)C1 [Example 2-25, (S)-2-((1H-pyrrolo[2,3-b]pyridin-5-yl)oxy)-4-(4-((4′-chloro-5,5-dimethyl-3,4,5,6-tetra-hydro-[1,1′-biphenyl]-2-yl)methyl)piperazin-1-yl)-N-((3-((3-hydroxy-3-methylazetidin-1-yl)methyl)-5-nitro-3,4-dihydro-2H-ben-zo[b][1,4]oxazin-7-yl)sulfonyl)benzamide]	0.008	0.01

The remaining compounds from weak to strong by IC50 [2], led by results:

IC50 [2] [µM]	Compound	IC50 [1] [µM]
0.004	CN1CCN(CC[C@@H]2COc3cc(S(=O)(=O)NC(=O)c4ccc(N5CCN(CC6=C(c7ccc(Cl)cc7)CC(C)(C)CC6)CC5)cc4Oc4cnc5[nH]ccc5c4)cc([N+](=O)[O-])c3N2)CC1 [Example 2-14, (R)-2-((1H-pyrrolo[2,3-b]pyridin-5-yl)oxy)-4-(4-((4′-chloro-5,5-dimethyl-3,4,5,6-tetra-hydro-[1,1′-biphenyl]-2-yl)methyl)piperazin-1-yl)-N-((3-(2-(4-methylpiperazin-1-yl)eth-yl)-5-nitro-3,4-dihydro-2H-benzo[b][1,4]oxazin-7-yl)sulfonyl)benzamide]	0.015
0.004	CN(C)CC[C@@H]1COc2cc(S(=O)(=O)NC(=O)c3ccc(N4CCN(CC5=C(c6ccc(Cl)cc6)CC(C)(C)CC5)CC4)cc3Oc3cnc4[nH]ccc4c3)cc([N+](=O)[O-])c2N1 [Example 2-16, (R)-2-((1H-pyrrolo[2,3-b]pyridin-5-yl)oxy)-4-(4-((4′-chloro-5,5-dimethyl-3,4,5,6-tetra-hydro-[1,1′-biphenyl]-2-yl)methyl)piperazin-1-yl)-N-((3-(2-(dimethylamino)ethyl)-5-nitro-3,4-dihydro-2H-benzo[b][1,4]oxazin-7-yl)sulfonyl)benzamide]	0.034
0.001	CN(C)CC[C@H]1COc2cc(S(=O)(=O)NC(=O)c3ccc(N4CCN(CC5=C(c6ccc(Cl)cc6)CC(C)(C)CC5)CC4)cc3Oc3cnc4[nH]ccc4c3)cc([N+](=O)[O-])c2N1 [Example 2-12, (S)-2-((1H-pyrrolo[2,3-b]pyridin-5-yl)oxy)-4-(4-((4′-chloro-5,5-dimethyl-3,4,5,6-tetra-hydro-[1,1′-biphenyl]-2-yl)methyl)piperazin-1-yl)-N-((3-(2-(dimethylamino)ethyl)-5-nitro-3,4-dihydro-2H-benzo[b][1,4]oxazin-7-yl)sulfonyl)benzamide]	0.019
0.001	CC1(C)CCC(CN2CCN(c3ccc(C(=O)NS(=O)(=O)c4cc5c(c([N+](=O)[O-])c4)N[C@H](CN4CC(C)(O)C4)CO5)c(Oc4cnc5[nH]ccc5c4)c3)CC2)=C(c2ccc(Cl)cc2)C1 [Example 2-21, (R)-2-((1H-pyrrolo[2,3-b]pyridin-5-yl)oxy)-4-(4-((4′-chloro-5,5-dimethyl-3,4,5,6-tetra-hydro-[1,1′-biphenyl]-2-yl)methyl)piperazin-1-yl)-N-((3-((3-hydroxy-3-methylazetidin-1-yl)methyl)-5-nitro-3,4-dihydro-2H-ben-zo[b][1,4]oxazin-7-yl)sulfonyl)benzamide]	0.008
0.001	C[C@@H]1CN(C[C@@H]2COc3cc(S(=O)(=O)NC(=O)c4ccc(N5CCN(CC6=C(c7ccc(Cl)cc7)CC(C)(C)CC6)CC5)cc4Oc4cnc5[nH]ccc5c4)cc([N+](=O)[O-])c3N2)CCN1C1COC1 [Example 2-22, 2-((1H-pyrrolo[2,3-b]pyridin-5-yl)oxy)-4-(4-((4′-chloro-5,5-dimethyl-3,4,5,6-tetra-hydro-[1,1′-biphenyl]-2-yl)methyl)piperazin-1-yl)-N-(((R)-3-(((R)-3-methyl-4-(oxetan-3-yl)piperazin-1-yl)methyl)-5-nitro-3,4-dihydro-2H-benzo[b][1,4]oxazin-7-yl)sulfonyl) benzamide]	0.002
